Like-named read-outs stand apart in the source and are kept apart here.
How the values were obtained:
[1] = molecular target: CDK19/Cyclin C (Homo sapiens, UniProt Q9BWU1); assay: NanoBRET live-cell target engagement, NanoLuc-CDK19/Cyclin C in HEK-293; settings: 10µM
[2] = molecular target: CDK14/Cyclin Y (Homo sapiens, UniProt O94921); assay: NanoBRET live-cell target engagement, CDK14-NanoLuc/Cyclin Y in HEK-293; type: binding; settings: 10µM
[3] = molecular target: CDK17/Cyclin Y (Homo sapiens, UniProt Q00537); assay: NanoBRET live-cell target engagement, CDK17-NanoLuc/Cyclin Y in HEK-293; type: binding; settings: 10µM
[4] = molecular target: CDK8/Cyclin C (Homo sapiens, UniProt P49336); assay: NanoBRET live-cell target engagement, NanoLuc-CDK8/Cyclin C in HEK-293; type: binding; settings: 10µM
[5] = molecular target: CDK4/Cyclin D1 (Homo sapiens, UniProt P11802); assay: NanoBRET live-cell target engagement, NanoLuc-CDK4/Cyclin D1 in HEK-293; type: binding; settings: 10µM
[6] = molecular target: CDK5/CDK5R1 (Homo sapiens, UniProt Q00535); assay: NanoBRET live-cell target engagement, CDK5-NanoLuc/CDK5R1 in HEK-293; type: binding; settings: 10µM
[7] = molecular target: CDK15/Cyclin Y (Homo sapiens, UniProt Q96Q40); assay: NanoBRET live-cell target engagement, NanoLuc-CDK15/Cyclin Y in HEK-293; type: binding; settings: 10µM
[8] = molecular target: CDK16/Cyclin Y (Homo sapiens, UniProt Q00536); assay: NanoBRET live-cell target engagement, CDK16-NanoLuc/Cyclin Y in HEK-293; type: binding; settings: 10µM
[9] = molecular target: CDK1/Cyclin E1 (Homo sapiens, UniProt P06493); assay: NanoBRET live-cell target engagement, CDK1-NanoLuc/Cyclin E1 in HEK-293; type: binding; settings: 10µM
[10] = molecular target: CDK9/Cyclin K (Homo sapiens, UniProt P50750); assay: NanoBRET live-cell target engagement, NanoLuc-CDK9/Cyclin K in HEK-293; type: binding; settings: 10µM
[11] = molecular target: CDK10/Cyclin L2 (Homo sapiens, UniProt Q15131); assay: NanoBRET live-cell target engagement, CDK10-NanoLuc/Cyclin L2 in HEK-293; settings: for IC50: read-out: CDK10/L2 IC50
[12] = molecular target: CDK7 (Homo sapiens, UniProt P50613); assay: NanoBRET live-cell target engagement, NanoLuc-CDK7 in HEK-293; type: binding; settings: 10µM
[13] = molecular target: CDK3/Cyclin E1 (Homo sapiens, UniProt Q00526); assay: NanoBRET live-cell target engagement, CDK3-NanoLuc/Cyclin E1 in HEK-293; type: binding; settings: 10µM
[14] = molecular target: CDK2/Cyclin E1 (Homo sapiens, UniProt P24941); assay: NanoBRET live-cell target engagement, CDK2-NanoLuc/Cyclin E1 in HEK-293; type: binding; settings: 10µM
[15] = molecular target: CDK18/Cyclin Y (Homo sapiens, UniProt Q07002); assay: NanoBRET live-cell target engagement, CDK18-NanoLuc/Cyclin Y in HEK-293; type: binding; settings: 10µM
[16] = molecular target: CDK11B/Cyclin L2 (Homo sapiens, UniProt P21127); assay: NanoBRET live-cell target engagement, CDK11B-NanoLuc/Cyclin L2 in HEK-293; type: binding; settings: 10µM
[17] = molecular target: CDK6/Cyclin D1 (Homo sapiens, UniProt Q00534); assay: NanoBRET live-cell target engagement, NanoLuc-CDK6/Cyclin D1 in HEK-293; type: binding; settings: 10µM
[18] = molecular target: T1, CDK11A/Cyclin L2 (Homo sapiens, UniProt Q9UQ88); assay: NanoBRET live-cell target engagement, CDK11A-NanoLuc/Cyclin L2 in HEK-293; type: binding
T1 sequence (Q9UQ88 1-783): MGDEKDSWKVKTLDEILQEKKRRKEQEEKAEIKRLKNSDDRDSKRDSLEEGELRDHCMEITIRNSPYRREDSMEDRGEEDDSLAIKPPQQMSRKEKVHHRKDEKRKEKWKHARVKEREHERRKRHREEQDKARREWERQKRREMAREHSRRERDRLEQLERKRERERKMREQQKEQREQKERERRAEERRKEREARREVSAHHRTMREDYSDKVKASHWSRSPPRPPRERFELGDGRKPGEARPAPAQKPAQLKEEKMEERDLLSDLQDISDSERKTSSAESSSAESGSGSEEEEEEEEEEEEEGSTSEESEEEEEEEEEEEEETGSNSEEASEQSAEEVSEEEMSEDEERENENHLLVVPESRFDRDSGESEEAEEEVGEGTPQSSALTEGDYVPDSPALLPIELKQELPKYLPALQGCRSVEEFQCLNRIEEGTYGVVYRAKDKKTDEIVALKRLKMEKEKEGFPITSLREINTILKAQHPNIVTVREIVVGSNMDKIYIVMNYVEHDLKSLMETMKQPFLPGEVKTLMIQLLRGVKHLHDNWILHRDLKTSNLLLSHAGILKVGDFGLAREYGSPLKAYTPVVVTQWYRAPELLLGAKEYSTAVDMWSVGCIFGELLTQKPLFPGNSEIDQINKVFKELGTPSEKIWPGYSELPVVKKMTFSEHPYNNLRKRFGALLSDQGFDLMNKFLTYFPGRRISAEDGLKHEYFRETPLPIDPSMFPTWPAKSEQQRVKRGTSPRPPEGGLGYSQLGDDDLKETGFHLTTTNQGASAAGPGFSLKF

[19] = molecular target: CDK20/Cyclin H (Homo sapiens, UniProt Q8IZL9); assay: NanoBRET live-cell target engagement, NanoLuc-CDK20/Cyclin H in HEK-293; type: binding; settings: 10µM

Sequence of CDK18/Cyclin Y (Q07002 whole entry): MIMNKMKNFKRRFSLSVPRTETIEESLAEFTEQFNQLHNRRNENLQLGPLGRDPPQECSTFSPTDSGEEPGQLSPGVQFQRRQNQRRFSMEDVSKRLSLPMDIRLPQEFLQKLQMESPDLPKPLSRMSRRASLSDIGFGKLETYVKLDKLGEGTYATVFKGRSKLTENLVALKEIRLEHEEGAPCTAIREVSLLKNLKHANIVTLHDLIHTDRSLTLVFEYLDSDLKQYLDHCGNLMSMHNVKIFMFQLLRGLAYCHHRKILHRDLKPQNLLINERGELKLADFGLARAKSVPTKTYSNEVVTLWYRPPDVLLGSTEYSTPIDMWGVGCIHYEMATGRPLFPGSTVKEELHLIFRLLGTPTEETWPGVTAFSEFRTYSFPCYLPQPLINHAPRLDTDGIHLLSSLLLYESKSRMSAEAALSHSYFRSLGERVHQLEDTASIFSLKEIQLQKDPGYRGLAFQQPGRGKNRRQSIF
Sequence of CDK18/Cyclin Y (Q8ND76 whole entry partner): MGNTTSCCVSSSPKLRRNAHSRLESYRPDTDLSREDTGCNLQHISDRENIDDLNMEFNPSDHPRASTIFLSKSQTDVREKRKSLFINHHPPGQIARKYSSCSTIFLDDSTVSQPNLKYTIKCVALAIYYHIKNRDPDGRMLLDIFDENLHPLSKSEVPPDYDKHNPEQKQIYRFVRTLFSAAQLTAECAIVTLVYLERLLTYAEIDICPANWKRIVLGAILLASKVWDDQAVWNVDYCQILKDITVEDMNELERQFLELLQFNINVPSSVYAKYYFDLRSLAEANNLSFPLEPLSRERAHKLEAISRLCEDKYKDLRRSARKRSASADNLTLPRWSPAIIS
Sequence of CDK5/CDK5R1 (Q00535 whole entry): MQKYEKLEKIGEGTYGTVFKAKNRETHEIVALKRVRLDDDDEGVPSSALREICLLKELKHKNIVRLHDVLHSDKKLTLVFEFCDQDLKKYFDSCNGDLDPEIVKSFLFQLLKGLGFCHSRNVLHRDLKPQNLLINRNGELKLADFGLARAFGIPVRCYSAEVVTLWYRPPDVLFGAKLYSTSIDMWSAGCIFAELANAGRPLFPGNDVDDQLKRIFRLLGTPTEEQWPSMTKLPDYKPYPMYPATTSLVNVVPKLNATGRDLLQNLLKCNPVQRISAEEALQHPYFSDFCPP
Sequence of CDK5/CDK5R1 (Q15078 whole entry partner): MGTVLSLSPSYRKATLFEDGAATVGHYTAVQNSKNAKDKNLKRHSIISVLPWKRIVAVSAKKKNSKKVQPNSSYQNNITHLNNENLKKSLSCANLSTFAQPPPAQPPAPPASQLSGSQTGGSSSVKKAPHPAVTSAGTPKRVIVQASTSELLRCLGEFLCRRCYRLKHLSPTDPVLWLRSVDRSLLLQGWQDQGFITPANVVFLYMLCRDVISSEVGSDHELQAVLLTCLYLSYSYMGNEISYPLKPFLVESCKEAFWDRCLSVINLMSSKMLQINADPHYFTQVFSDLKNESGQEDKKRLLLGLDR
Sequence of CDK9/Cyclin K (P50750 whole entry): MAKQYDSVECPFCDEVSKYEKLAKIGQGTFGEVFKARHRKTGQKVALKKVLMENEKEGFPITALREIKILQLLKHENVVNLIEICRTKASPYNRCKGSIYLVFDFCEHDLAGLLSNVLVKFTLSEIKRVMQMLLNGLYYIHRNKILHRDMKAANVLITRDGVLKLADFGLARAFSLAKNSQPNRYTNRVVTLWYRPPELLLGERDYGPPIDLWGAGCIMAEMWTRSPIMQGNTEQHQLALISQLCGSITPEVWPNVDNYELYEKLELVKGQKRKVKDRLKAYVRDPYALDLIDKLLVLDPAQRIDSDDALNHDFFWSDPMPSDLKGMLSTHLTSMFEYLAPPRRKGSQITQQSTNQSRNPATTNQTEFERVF
Sequence of CDK9/Cyclin K (O75909 whole entry partner): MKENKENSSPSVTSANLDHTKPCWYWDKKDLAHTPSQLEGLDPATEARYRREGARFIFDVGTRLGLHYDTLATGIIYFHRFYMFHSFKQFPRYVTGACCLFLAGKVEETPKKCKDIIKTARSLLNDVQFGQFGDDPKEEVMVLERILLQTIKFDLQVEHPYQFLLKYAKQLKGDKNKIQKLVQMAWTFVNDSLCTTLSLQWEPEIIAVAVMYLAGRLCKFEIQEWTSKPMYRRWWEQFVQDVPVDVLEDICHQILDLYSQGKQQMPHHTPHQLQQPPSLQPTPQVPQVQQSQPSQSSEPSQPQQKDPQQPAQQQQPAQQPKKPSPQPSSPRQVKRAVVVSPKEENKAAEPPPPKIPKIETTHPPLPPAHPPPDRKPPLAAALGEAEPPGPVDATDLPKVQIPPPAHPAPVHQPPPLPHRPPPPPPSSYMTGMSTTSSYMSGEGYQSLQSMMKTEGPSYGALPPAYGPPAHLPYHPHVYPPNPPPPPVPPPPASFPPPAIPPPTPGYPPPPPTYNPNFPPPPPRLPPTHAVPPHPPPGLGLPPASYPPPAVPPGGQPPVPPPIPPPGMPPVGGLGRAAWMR
Sequence of CDK1/Cyclin E1 (P06493 whole entry): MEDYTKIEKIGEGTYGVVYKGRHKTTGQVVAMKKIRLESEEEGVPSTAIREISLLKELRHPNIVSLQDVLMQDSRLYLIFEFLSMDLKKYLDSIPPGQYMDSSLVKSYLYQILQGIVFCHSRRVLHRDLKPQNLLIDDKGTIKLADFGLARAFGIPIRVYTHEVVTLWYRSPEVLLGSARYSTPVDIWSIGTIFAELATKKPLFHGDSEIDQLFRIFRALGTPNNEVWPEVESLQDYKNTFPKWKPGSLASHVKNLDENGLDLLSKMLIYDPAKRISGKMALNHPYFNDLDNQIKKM
Sequence of CDK1/Cyclin E1 (P24864 whole entry partner): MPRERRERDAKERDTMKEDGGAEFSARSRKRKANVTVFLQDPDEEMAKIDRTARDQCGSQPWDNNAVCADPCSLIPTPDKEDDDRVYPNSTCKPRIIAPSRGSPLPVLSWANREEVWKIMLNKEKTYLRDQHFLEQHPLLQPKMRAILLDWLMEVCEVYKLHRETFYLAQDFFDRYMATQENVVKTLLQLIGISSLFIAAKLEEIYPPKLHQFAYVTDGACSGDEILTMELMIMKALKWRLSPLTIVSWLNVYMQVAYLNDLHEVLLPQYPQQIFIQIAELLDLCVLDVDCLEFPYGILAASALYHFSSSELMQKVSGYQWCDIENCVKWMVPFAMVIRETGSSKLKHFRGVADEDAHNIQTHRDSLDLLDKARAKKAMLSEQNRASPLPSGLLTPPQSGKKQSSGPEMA
Sequence of CDK19/Cyclin C (Q9BWU1 whole entry): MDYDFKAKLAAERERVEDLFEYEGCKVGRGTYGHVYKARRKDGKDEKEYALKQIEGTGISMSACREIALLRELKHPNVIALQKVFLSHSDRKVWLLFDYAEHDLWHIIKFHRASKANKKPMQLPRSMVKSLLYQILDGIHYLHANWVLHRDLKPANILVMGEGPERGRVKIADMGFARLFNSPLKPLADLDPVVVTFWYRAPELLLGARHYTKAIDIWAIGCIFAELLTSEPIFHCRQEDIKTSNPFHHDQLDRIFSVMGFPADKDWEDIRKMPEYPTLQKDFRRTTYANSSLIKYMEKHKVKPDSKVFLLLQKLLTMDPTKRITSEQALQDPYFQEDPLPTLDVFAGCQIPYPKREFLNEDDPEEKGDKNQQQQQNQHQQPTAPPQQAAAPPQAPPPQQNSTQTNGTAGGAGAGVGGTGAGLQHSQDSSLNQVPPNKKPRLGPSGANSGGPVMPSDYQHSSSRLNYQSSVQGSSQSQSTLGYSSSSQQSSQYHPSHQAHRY
Sequence of CDK19/Cyclin C (P24863 whole entry partner): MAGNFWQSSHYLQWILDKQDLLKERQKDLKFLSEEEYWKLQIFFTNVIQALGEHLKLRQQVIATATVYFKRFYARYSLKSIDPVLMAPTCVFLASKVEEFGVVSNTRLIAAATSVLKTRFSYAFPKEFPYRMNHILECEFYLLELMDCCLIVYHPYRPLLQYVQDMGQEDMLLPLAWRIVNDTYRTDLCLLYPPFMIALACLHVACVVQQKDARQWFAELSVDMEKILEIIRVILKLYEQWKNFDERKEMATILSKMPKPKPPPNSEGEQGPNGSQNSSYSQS
Sequence of CDK8/Cyclin C (P49336 whole entry): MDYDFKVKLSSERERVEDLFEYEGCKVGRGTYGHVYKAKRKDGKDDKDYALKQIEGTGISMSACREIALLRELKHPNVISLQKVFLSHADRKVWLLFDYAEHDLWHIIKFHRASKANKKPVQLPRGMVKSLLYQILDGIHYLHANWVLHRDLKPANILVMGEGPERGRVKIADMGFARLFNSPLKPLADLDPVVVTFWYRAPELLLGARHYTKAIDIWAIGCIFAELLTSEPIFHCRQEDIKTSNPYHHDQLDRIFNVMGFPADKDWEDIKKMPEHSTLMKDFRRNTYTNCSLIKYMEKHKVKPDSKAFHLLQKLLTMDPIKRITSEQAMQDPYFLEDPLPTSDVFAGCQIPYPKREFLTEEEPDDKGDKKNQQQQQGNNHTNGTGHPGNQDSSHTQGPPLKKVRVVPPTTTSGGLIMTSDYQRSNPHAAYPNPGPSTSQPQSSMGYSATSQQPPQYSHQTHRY
Sequence of CDK8/Cyclin C (P24863 whole entry partner): as the sequence (P24863 whole entry partner) above
Sequence of CDK10/Cyclin L2 (Q15131 whole entry): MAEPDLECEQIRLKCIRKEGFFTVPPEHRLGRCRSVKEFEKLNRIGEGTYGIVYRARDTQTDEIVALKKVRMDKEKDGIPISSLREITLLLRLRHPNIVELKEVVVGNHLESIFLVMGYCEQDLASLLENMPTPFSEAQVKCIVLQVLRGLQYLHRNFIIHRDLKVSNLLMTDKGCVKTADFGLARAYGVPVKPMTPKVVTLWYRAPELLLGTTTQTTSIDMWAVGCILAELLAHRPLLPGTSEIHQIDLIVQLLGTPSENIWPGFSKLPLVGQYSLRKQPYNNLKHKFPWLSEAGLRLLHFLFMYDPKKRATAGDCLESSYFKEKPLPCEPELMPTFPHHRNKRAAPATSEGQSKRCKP

CN(C)C/C=C/C(=O)Nc1ccc(C(=O)Nc2cccc(Nc3ncc(Cl)c(-c4c[nH]c5ccccc45)n3)c2)cc1 [THZ1]
CDK19/C Inhibition at 10µM (%) ([1]; average of experiments): 66.6%
CDK19/C Inhibition at 10µM (%) ([1]; independent experiment 1): 44.1%
CDK19/C Inhibition at 10µM (%) ([1]; independent experiment 2): 89.1%
CDK14/Y Inhibition at 10µM (%) ([2]; average of experiments): 33.1%
CDK14/Y Inhibition at 10µM (%) ([2]; independent experiment 1): 6.6%
CDK14/Y Inhibition at 10µM (%) ([2]; independent experiment 2): 59.6%
CDK17/Y Inhibition at 10µM (%) ([3]; average of experiments): 50.4%
CDK17/Y Inhibition at 10µM (%) ([3]; independent experiment 1): 73.0%
CDK17/Y Inhibition at 10µM (%) ([3]; independent experiment 2): 27.8%
CDK8/C Inhibition at 10µM (%) ([4]; average of experiments): 62.9%
CDK8/C Inhibition at 10µM (%) ([4]; independent experiment 1): 34.6%
CDK8/C Inhibition at 10µM (%) ([4]; independent experiment 2): 91.2%
CDK4/D1 Inhibition at 10µM (%) ([5]; average of experiments): 53.8%
CDK4/D1 Inhibition at 10µM (%) ([5]; independent experiment 1): 13.3%
CDK4/D1 Inhibition at 10µM (%) ([5]; independent experiment 2): 94.2%
CDK5/CDK5R1 Inhibition at 10µM (%) ([6]; average of experiments): 42.5%
CDK5/CDK5R1 Inhibition at 10µM (%) ([6]; independent experiment 1): 19.2%
CDK5/CDK5R1 Inhibition at 10µM (%) ([6]; independent experiment 2): 65.8%
CDK15/Y Inhibition at 10µM (%) ([7]; average of experiments): 64.9%
CDK15/Y Inhibition at 10µM (%) ([7]; independent experiment 1): 40.7%
CDK15/Y Inhibition at 10µM (%) ([7]; independent experiment 2): 89.2%
CDK16/Y Inhibition at 10µM (%) ([8]; independent experiment 1): 74.4%
CDK16/Y Inhibition at 10µM (%) ([8]; independent experiment 2): 11.2%
CDK1/E1 Inhibition at 10µM (%) ([9]; average of experiments): 91.9%
CDK1/E1 Inhibition at 10µM (%) ([9]; independent experiment 1): 87.2%
CDK1/E1 Inhibition at 10µM (%) ([9]; independent experiment 2): 96.6%
CDK9/K Inhibition at 10µM (%) ([10]; average of experiments): 70.0%
CDK9/K Inhibition at 10µM (%) ([10]; independent experiment 1): 44.1%
CDK9/K Inhibition at 10µM (%) ([10]; independent experiment 2): 96.0%
CDK10/L2 Inhibition at 10µM (%) ([11]; average of experiments): 48.0%
CDK10/L2 Inhibition at 10µM (%) ([11]; independent experiment 1): 11.4%
CDK10/L2 Inhibition at 10µM (%) ([11]; independent experiment 2): 84.6%
IC50 ([11]; average (± SEM where n=3)): 1000 ± 300 nM
IC50 ([11]; independent experiment 1): 660 nM
IC50 ([11]; independent experiment 2): 790 nM
IC50 ([11]; independent experiment 3): 1500 nM
CDK7 Inhibition at 10µM (%) ([12]; average of experiments): 83.9%
CDK7 Inhibition at 10µM (%) ([12]; independent experiment 1): 70.6%
CDK7 Inhibition at 10µM (%) ([12]; independent experiment 2): 97.1%
CDK3/E1 Inhibition at 10µM (%) ([13]; average of experiments): 55.0%
CDK3/E1 Inhibition at 10µM (%) ([13]; independent experiment 1): 14.7%
CDK3/E1 Inhibition at 10µM (%) ([13]; independent experiment 2): 95.2%
CDK2/E1 Inhibition at 10µM (%) ([14]; average of experiments): 16.1%
CDK2/E1 Inhibition at 10µM (%) ([14]; independent experiment 1): 27.6%
CDK2/E1 Inhibition at 10µM (%) ([14]; independent experiment 2): 4.6%
CDK18/Y Inhibition at 10µM (%) ([15]; average of experiments): 48.6%
CDK18/Y Inhibition at 10µM (%) ([15]; independent experiment 1): 73.0%
CDK18/Y Inhibition at 10µM (%) ([15]; independent experiment 2): 24.3%
CDK11b/L2 Inhibition at 10µM (%) ([16]; average of experiments): 34.5%
CDK11b/L2 Inhibition at 10µM (%) ([16]; independent experiment 1): 13.3%
CDK11b/L2 Inhibition at 10µM (%) ([16]; independent experiment 2): 55.7%
CDK6/D1 Inhibition at 10µM (%) ([17]; average of experiments): 73.8%
CDK6/D1 Inhibition at 10µM (%) ([17]; independent experiment 1): 53.8%
CDK6/D1 Inhibition at 10µM (%) ([17]; independent experiment 2): 93.8%
CDK11a/L2 Inhibition at 10µM (%) ([18]; average of experiments): 42.5%
CDK11a/L2 Inhibition at 10µM (%) ([18]; independent experiment 1): 8.0%
CDK11a/L2 Inhibition at 10µM (%) ([18]; independent experiment 2): 77.1%
IC50 ([18]; independent experiment 1, read-out: CDK11a/L2 IC50): 450 nM
IC50 ([18]; independent experiment 2, read-out: CDK11a/L2 IC50): 230 nM
IC50 ([18]; independent experiment 3, read-out: CDK11a/L2 IC50): 218 nM
IC50 ([18]; live HEK-293, 2 h, mean ± S.E.M. (n=3) or mean (n=2), read-out: IC50 for CDK/cyclin complexes, CDK11a/L2): 300 nM
CDK20/H Inhibition at 10µM (%) ([19]; independent experiment 1): 63.8%
CDK20/H Inhibition at 10µM (%) ([19]; independent experiment 2): 90.1%
